Columns and labels:
C. albicans IFO 1270 = experiment: survival of mice after intravenous inoculation with C. albicans, oral treatment (Test Example 2, Table 3); type: in vivo; settings: 10 mg/kg orally once a day for 3 consecutive days, 10 days after inoculation, male ddy mice; for responders at 10 mg/kg: Candida albicans, IFO1270, po, 240 h, read-out: Survival ratio (%)
Procedure: Male ddy mice at six weeks of age were divided into a control group of 10 animals and drug administration groups of 5 animals each.
Subculture was carried out at 37° C. for 24 hrs Sabouraudp's glucose agar (manufactured by Difco laboratory).
A cell suspension of C. albicans IFO 1270 (2.5×10^7 cells/ml) was intravenously inoculated in an amount of 4 ml/kg, and each test compound was orally administered in a dose of 10 mg/kg once a day for 3 consecutive days. Examination of survival ratio was carried out 10 days after the inoculation of fungi.

[1] = test system: Candida albicans IFO 1270; experiment: growth inhibition of Candida albicans IFO 1270 in culture (Test Example 1, Table 2); type: cell-based; settings: 37° C., Sabouraud's glucose broth; for inhibition of growth at 0.1 µg/mL / inhibition of growth at 10 µg/mL: Candida albicans, IFO1270, 48 h; for inhibition of growth at 0.1 µg/mL / Growth inhibition ratio (%) 0.1 μg/ml: final compound concentration 0.1 μg/ml; for inhibition of growth at 0.1 µg/mL: read-out: Growth inhibition ratio (%) 0.1 μg/ml; for inhibition of growth at 10 µg/mL / Growth inhibition ratio (%) 10 μg/ml: final compound concentration 10 μg/ml; for inhibition of growth at 10 µg/mL: read-out: Growth inhibition ratio (%) 10 μg/ml; for Growth inhibition ratio (%) 0.1 μg/ml / Growth inhibition ratio (%) 10 μg/ml: 48 hrs
Procedure: A 0.1 ml portion of a cell suspension of Candida albicans IFO 1270 (1.0×10^7 cells/ml) and a 0.1 ml portion of each test compound dissolved in dimethylsulfoxide were added to 9.8 ml of Sabouraudp's glucose broth.
Final compound concentrations in the culture were 10 μg/ml or 0.1 μg/ml. After incubation On a reciprocal shaker at 37° C. for 48 hrs, growth inhibition ratio of each test compound was measured.

Compound	responders at 10 mg/kg (C. albicans IFO 1270) [%]	inhibition of growth at 0.1 µg/mL [1] [%]	inhibition of growth at 10 µg/mL [1] [%]	Survival ratio (%) (C. albicans IFO 1270)	Growth inhibition ratio (%) 0.1 μg/ml [1] [%]	Growth inhibition ratio (%) 10 μg/ml [1] [%]
CC(Cc1ccc(F)cc1F)C(O)(Cn1cncn1)c1ccc(F)cc1F (centres unmarked) [compound 32]	80	–	–	–	–	–
CC(Cc1ccc([N+](=O)[O-])cc1)C(O)(Cn1cncn1)c1ccc(F)cc1F (centres unmarked) [compound 22]	100	58	70	–	–	–
CC(Cc1ccc(-n2cnn(C)c2=O)cc1)C(O)(Cn1cncn1)c1ccc(F)cc1F (centres unmarked) [compound 31]	80	–	–	–	–	–
CC(Cc1ccc(C(F)(F)F)cc1)C(O)(Cn1cncn1)c1ccc(F)cc1F (centres unmarked) [compound 43]	100	–	–	–	–	–
CC(Cn1cncn1)C(O)(Cn1cncn1)c1ccc(F)cc1 (centres unmarked) [compound 14]	20	2	20	–	–	–
CC(Cc1ccc(C=NNC=O)cc1)C(O)(Cn1cncn1)c1ccc(F)cc1F (centres unmarked) [compound 27]	40	–	–	–	–	–
CC(Cc1ccc(-n2cncn2)cc1)C(O)(Cn1cncn1)c1ccc(F)cc1F (centres unmarked) [compound 15]	–	53	66	100	–	–
CC(Cc1cccnc1)C(O)(Cn1cncn1)c1ccc(F)cc1F (centres unmarked) [compound 18]	40	–	–	–	–	–
CC(Cc1ccc(F)cc1)C(O)(Cn1cncn1)c1ccc(F)cc1F (centres unmarked) [Compound No. 1]	80	71	85	–	–	–
CC(CSc1nccn1C)C(O)(Cn1cncn1)c1ccc(F)cc1 (centres unmarked) [compound 5]	0	5	10	–	–	–
CC(CCCc1ccc(Cl)cc1)C(O)(Cn1cncn1)c1ccc(F)cc1F (centres unmarked) [compound 2]	80	60	76	–	–	–
CC(Cc1ccc(S(C)(=O)=O)cc1)C(O)(Cn1cncn1)c1ccc(F)cc1F (centres unmarked) [compound 30]	100	6	63	–	–	–
CC(=O)N1CCN(c2ccc(OC[C@H]3CO[C@](Cn4ccnc4)(c4ccc(Cl)cc4Cl)O3)cc2)CC1 (relative stereo) [Control drug A, cis1-acetyl-4-[4-[[2-(2,4-dichlorophenyl)-2-(imidazol-1-ylmethyl)-1,3-dioolan-4-yl]methoxy]phenyl]piperazine, reference compound]	20	59	77	–	–	–
CC(CCc1ccc(F)cc1)C(O)(Cn1cncn1)c1ccc(F)cc1F (centres unmarked) [compound 25]	–	60	70	–	–	–
CC(CCCc1ccc(Cl)cc1)C(O)(Cn1cncn1)c1ccc(F)cc1F (centres unmarked) [compound 3]	–	–	–	60	58	74
CSc1cc(Cl)ccc1CC(C)C(O)(Cn1cncn1)c1ccc(F)cc1F (centres unmarked) [compound 39]	100	53	68	–	–	–
CC(Cc1ccc(-n2cncn2)cc1)C(O)(Cn1cncn1)c1ccc(F)cc1F (centres unmarked) [compound 16]	–	–	–	100	–	–
CC(Cc1ccc(C#N)cc1)C(O)(Cn1cncn1)c1ccc(F)cc1F (single isomer, unassigned) [compound 8, 1-triazolyl-2-(2,4-difluorophenyl)-3-methyl-4-(4-cyanophenyl)-2-butanol]	100	59	78	–	–	–
CC(CSc1ccc(F)cc1)C(O)(Cn1cncn1)c1ccc(F)cc1 (centres unmarked) [compound 4, 1-triazolyl-2-(4-fluorophenyl)-3-methyl-4-(4-fluorophenyl)-mercapto-2-butanol]	0	6	72	–	–	–
CC(Cc1ccc(Cl)cc1SC(F)F)C(O)(Cn1cncn1)c1ccc(F)cc1F (centres unmarked) [compound 20]	100	53	68	–	–	–
CC(Cc1ccc(OC(F)(F)F)cc1)C(O)(Cn1cncn1)c1ccc(F)cc1F (centres unmarked) [Compound No. 10]	100	–	–	–	–	–
CC(CCc1ccc(-n2cncn2)cc1)C(O)(Cn1cncn1)c1ccc(F)cc1F (centres unmarked) [compound 37, 2-(2,4-difluorophenyl)-3-methyl-5-(4-triazolphenyl)-1-triazolyl-pentan-2-ol]	80	–	–	–	–	–
2-(2,4-difluorophenyl)-2-[1-methyl-2-(4-fluorophenyl)-ethyl]-1-triazolyl-2-ethanol [compound 11]	–	–	–	60	45	74
CC(Cc1ccc(C#N)cc1)C(O)(Cn1cncn1)c1ccc(F)cc1F (centres unmarked) [compound 7, 1-triazolyl-2-(2,4-difluorophenyl)-3-methyl-4-(4-cyanophenyl)-2-butanol]	100	53	74	–	–	–
CC(Cc1ccc(Cl)cc1Cl)C(O)(Cn1cncn1)c1ccc(F)cc1F (centres unmarked) [compound 28]	100	–	–	–	–	–
CC(Cc1ccc(-n2cncn2)cc1)C(O)(Cn1cncn1)c1ccc(F)cc1F (centres unmarked) [compound 17]	–	–	–	60	–	–
CC(CCc1ccc(C#N)cc1)C(O)(Cn1cncn1)c1ccc(F)cc1F (centres unmarked) [compound 35]	–	60	74	–	–	–
